In BigSolDB 2.1:

O=C(O)CCCC(=O)O
Details	solubility (mole fraction)
in acetic acid, 292.75 K	0.162
in acetic acid, 297.84 K	0.183
in acetic acid, 301.3 K	0.203
in acetic acid, 304.47 K	0.221
in acetic acid, 307.28 K	0.241
in acetic acid, 310.19 K	0.257
in acetic acid, 313.64 K	0.28
in acetic acid, 316.5 K	0.302
in acetic acid, 319.05 K	0.323
in acetic acid, 321.38 K	0.345
in acetic acid, 325.45 K	0.373
in acetic acid, 327.38 K	0.399
in acetic acid, 332.97 K	0.436
in acetic acid, 335.25 K	0.478
in acetic acid, 338.05 K	0.514
in acetic acid, 341.94 K	0.553
in acetic acid, 344.21 K	0.585
in acetic acid, 347.24 K	0.621
in acetic acid, 349.88 K	0.651
in acetic acid, 353.36 K	0.712
in cyclohexanol, 299.75 K	0.205
in cyclohexanol, 302.7 K	0.219
in cyclohexanol, 305.85 K	0.234
in cyclohexanol, 308.6 K	0.25
in cyclohexanol, 313.19 K	0.271
in cyclohexanol, 316 K	0.288
in cyclohexanol, 318.55 K	0.312
in cyclohexanol, 320.55 K	0.33
in cyclohexanol, 325.15 K	0.366
in cyclohexanol, 326.5 K	0.371
in cyclohexanol, 332.55 K	0.428
in cyclohexanol, 334.9 K	0.455
in cyclohexanol, 336.3 K	0.477
in cyclohexanol, 339.75 K	0.511
in cyclohexanol, 342.15 K	0.545
in cyclohexanol, 344.8 K	0.571
in cyclohexanol, 347.19 K	0.622
in cyclohexanol, 350.05 K	0.66
in cyclohexanol, 351.93 K	0.693
in cyclohexanol, 352.48 K	0.719
in cyclohexanol, 352.95 K	0.748
in cyclohexanone, 294 K	0.161
in cyclohexanone, 299.7 K	0.189
in cyclohexanone, 304.5 K	0.213
in cyclohexanone, 308.05 K	0.241
in cyclohexanone, 311.94 K	0.264
in cyclohexanone, 314.15 K	0.283
in cyclohexanone, 317.54 K	0.307
in cyclohexanone, 320.3 K	0.334
in cyclohexanone, 325.05 K	0.366
in cyclohexanone, 326.95 K	0.392
in cyclohexanone, 330.5 K	0.428
in cyclohexanone, 333.81 K	0.458
in cyclohexanone, 335.23 K	0.478
in cyclohexanone, 338.35 K	0.513
in cyclohexanone, 342.65 K	0.557
in cyclohexanone, 346.8 K	0.598
in cyclohexanone, 347.65 K	0.627
in cyclohexanone, 349.7 K	0.655
in cyclohexanone, 351.5 K	0.679
in cyclohexanone, 353.65 K	0.705
